Experimental data reported in ChEMBL document CHEMBL1137909, “Synthesis and in vitro evaluation of (S)-2-([11C]methoxy)-4-[3-methyl-1-(2-piperidine-1-yl-phenyl)-butyl-carbamoyl]-benzoic acid ([11C]methoxy-repaglinide): a potential beta-cell imaging agent” (Bioorg Med Chem Lett, 2004).

Legend:
[1] = target: T1, ATP-binding cassette sub-family C member 8 (Homo sapiens, UniProt Q09428); test: Displacement of [3H]glibenclamide from COS-1 cells expressing Sulfonylurea receptor 1 (SUR-1); type: cell-based
Rattus norvegicus [2] = organism: Rattus norvegicus; test: In vitro ability to stimulate insulin was determined at (5 mM glucose+0.1 uM compound); type: functional
Rattus norvegicus [3] = organism: Rattus norvegicus; test: In vitro ability to stimulate insulin was determined at (15 mM glucose); type: functional
Rattus norvegicus [4] = organism: Rattus norvegicus; test: Percent stimulation index to stimulate insulin was determined; type: functional
Rattus norvegicus [5] = organism: Rattus norvegicus; test: Percent relative stimulation index to stimulate insulin was determined; type: functional
[6] = target: T1, ATP-binding cassette sub-family C member 8; test: In vitro displacement of [3H]glibenclamide (IC50=0.61) from COS-1 cells expressing Sulfonylurea receptor 1 (SUR-1); type: cell-based

T1 sequence (Q09428 whole entry): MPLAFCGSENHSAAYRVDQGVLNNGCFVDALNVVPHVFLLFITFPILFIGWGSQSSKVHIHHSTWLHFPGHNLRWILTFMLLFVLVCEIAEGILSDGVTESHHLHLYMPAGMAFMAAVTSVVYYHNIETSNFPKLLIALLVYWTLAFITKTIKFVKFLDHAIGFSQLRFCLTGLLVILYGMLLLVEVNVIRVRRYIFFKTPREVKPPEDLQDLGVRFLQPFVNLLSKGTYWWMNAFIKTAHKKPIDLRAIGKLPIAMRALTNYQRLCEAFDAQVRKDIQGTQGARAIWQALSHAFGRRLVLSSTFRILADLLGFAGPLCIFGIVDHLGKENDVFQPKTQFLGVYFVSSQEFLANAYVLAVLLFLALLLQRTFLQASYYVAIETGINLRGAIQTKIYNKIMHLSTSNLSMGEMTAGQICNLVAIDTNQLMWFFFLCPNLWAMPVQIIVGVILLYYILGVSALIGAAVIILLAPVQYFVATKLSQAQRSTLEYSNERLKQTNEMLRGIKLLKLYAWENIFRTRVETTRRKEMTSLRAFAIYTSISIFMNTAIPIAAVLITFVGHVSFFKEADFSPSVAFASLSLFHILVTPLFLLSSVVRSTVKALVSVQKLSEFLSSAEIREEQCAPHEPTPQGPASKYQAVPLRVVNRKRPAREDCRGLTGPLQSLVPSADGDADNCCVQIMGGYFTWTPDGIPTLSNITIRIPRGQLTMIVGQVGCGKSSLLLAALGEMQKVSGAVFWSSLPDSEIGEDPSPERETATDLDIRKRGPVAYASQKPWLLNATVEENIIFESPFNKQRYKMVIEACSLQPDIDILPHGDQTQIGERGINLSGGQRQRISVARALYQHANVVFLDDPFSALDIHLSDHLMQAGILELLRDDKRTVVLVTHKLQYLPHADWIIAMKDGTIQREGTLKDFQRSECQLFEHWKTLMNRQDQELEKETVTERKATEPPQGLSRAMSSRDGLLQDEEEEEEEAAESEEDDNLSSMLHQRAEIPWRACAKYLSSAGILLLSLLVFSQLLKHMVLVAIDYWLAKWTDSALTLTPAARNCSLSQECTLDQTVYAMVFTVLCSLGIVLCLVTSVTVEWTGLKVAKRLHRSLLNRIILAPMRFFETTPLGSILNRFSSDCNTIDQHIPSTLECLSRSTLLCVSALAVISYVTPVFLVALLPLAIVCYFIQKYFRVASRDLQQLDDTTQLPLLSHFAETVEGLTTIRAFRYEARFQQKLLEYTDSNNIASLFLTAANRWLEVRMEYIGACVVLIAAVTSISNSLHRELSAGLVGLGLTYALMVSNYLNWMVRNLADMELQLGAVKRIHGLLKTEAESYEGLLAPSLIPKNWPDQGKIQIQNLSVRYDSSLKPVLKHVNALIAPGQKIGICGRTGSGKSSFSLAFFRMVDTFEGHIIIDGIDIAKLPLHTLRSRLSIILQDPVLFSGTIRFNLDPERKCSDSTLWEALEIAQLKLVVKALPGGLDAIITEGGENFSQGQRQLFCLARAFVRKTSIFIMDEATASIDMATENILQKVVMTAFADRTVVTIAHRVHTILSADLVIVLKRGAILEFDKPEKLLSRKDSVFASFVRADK

Kd [1] | IC50 [6] | SMILES | Insulin release (Rattus norvegicus [2]) | Insulin release (Rattus norvegicus [3]) | Stimulation index (Rattus norvegicus [4]) | Relative stimulation index (Rattus norvegicus [5])
83 nM | 163 nM | COc1cc(CC(=O)N[C@@H](CC(C)C)c2ccccc2N2CCCCC2)ccc1C(=O)O | 2 ng/islet/1h | 4 ng/islet/1h | 2 fold | 64%
50 nM | 106 nM | CCOc1cc(CC(=O)N[C@@H](CC(C)C)c2ccccc2N2CCCCC2)ccc1C(=O)O [REPAGLINIDE] | 2.1 ng/islet/1h | 4 ng/islet/1h | 1.9 fold | 63%
134 nM | 281 nM | CC(C)C[C@H](NC(=O)Cc1ccc(C(=O)O)c(OCCF)c1)c1ccccc1N1CCCCC1 | – | – | – | –
